Source: ChEMBL document CHEMBL3217721 (Medchemcomm, 2012)
Calls of active or inactive are those of the source. The rule behind the calls is not given here.

Legend:
NCI-H460 = assay: Growth inhibition of human NCI-H460 cells by sulforhodamine B assay; assay type: functional
SK-OV-3 = assay: Growth inhibition of human SKOV3 cells by sulforhodamine B assay; assay type: functional
DU-145 = assay: Growth inhibition of human DU145 cells by sulforhodamine B assay; assay type: functional
HUVEC [1] = assay: Vascular disrupting activity in HUVEC assessed as disruption of capillary-like network of tubules at 0.01 to 0.1 uM after 2 hrs by matrigel assay; assay type: functional, cell-based; conditions: Homo sapiens
Tubulin = Tubulin (Bos taurus, UniProt Q6B856+Q862L2+Q862F3); assay: Inhibition of bovine brain tubulin polymerization after 20 mins by spectrophotometric analysis
HUVEC [2] = assay: Vascular disrupting activity in HUVEC assessed as cell rounding at 1 uM after 2 hrs by matrigel assay; assay type: functional, cell-based; conditions: Homo sapiens
HUVEC [3] = assay: Vascular disrupting activity in HUVEC assessed as disruption of capillary-like network of tubules at 1 uM after 2 hrs by matrigel assay; assay type: functional, cell-based; conditions: Homo sapiens
Tubulin (Homo sapiens) [4] = biological target: T1, Tubulin (Homo sapiens) (UniProt P68371+Q9H4B7+P0DPH7+P68366+Q13509+Q71U36+P04350+Q3ZCM7+P07437+P68363+Q9BQE3+Q6PEY2+Q13885+Q9BVA1+Q9BUF5); assay: Displacement of [3H]-Colchicine from tubulin (unknown origin) at 5 uM relative to control; assay type: protein-complex assay
HUVEC [5] = assay: Vascular disrupting activity in HUVEC assessed as disruption of capillary-like network of tubules at 0.01 to 1 uM after 2 hrs by matrigel assay; assay type: functional, cell-based; conditions: Homo sapiens
HUVEC [6] = assay: Vascular disrupting activity in HUVEC assessed as cell rounding at 0.1 to 1 uM after 2 hrs by matrigel assay; assay type: functional, cell-based; conditions: Homo sapiens
HUVEC [7] = assay: Vascular disrupting activity in HUVEC assessed as disruption of capillary-like network of tubules after 2 hrs by matrigel assay; assay type: functional, cell-based; conditions: Homo sapiens
Tubulin (Homo sapiens) [8] = biological target: T1, Tubulin (Homo sapiens); assay: Displacement of [3H]-Colchicine from tubulin (unknown origin) at 1 uM relative to control; assay type: protein-complex assay

Row | GI50 (NCI-H460) [nM] | GI50 (SK-OV-3) [nM] | GI50 (DU-145; Homo sapiens, DU-145) [nM] | SMILES | IC50 (Tubulin) [nM] | inhibition (Tubulin (Homo sapiens) [4]) [%] | GI50 (DU-145) [nM] | also measured
1 | 15 | 38 | 33 | COc1ccc(/C=C\c2cc(OC)c(OC)c(OC)c2)c(O)c1O [COMBRETASTATIN A-1] | – | – | – | –
2 | 216 | 152 | 211 | COc1cc(C2=CCCCc3c2ccc(OC)c3[N+](=O)[O-])cc(OC)c1OC | 2500 | 63 | – | Activity (HUVEC [1]): inactive; Activity (HUVEC [2]): Active; Activity (HUVEC [3]): Active
3 | 2.8 | 0.42 | 0.54 | COc1ccc(/C=C\c2cc(OC)c(OC)c(OC)c2)cc1O [COMBRETASTATIN A4] | – | – | – | Activity (HUVEC [5]): Active
4 | – | – | – | COc1ccc2c(c1N)CCCC=C2c1cc(OC)c(OC)c(OC)c1 [listing 1 of 3 here] | – | 91 | – | Activity (HUVEC [6]): Active; Activity (HUVEC [7]): Dose-dependent effect; inhibition (Tubulin (Homo sapiens) [8]): 65%
5 | – | – | – | COc1ccc2c(c1N)CCCC=C2c1cc(OC)c(OC)c(OC)c1 [listing 2 of 3 here] | – | – | 3.53 | –

Row | SMILES | GI50 (NCI-H460) [nM] | GI50 (SK-OV-3) [nM] | GI50 (DU-145; Homo sapiens, DU-145) [nM] | IC50 (Tubulin) [nM] | inhibition (Tubulin (Homo sapiens) [4]) [%] | GI50 (DU-145) [nM] | also measured
6 | COc1ccc2c(c1N)CCCC=C2c1cc(OC)c(OC)c(OC)c1 [listing 3 of 3 here] | – | 0.0329 | – | 1200 | – | 1.11 | –
